Assay results as given in patent US11458106B2, “Lipid nanoparticles comprising lipophilic anti-inflammatory agents and methods of use thereof” (ASTRAZENECA AB, priority 2016, dated 2022).

Tests used:
mRNA 1 protein = assay: Quantification of mRNA 1 protein in plasma; assay type: in vivo, mice; conditions: s.c. 0.3 mg mRNA/kg; for protein expression (plasma mRNA 1 protein): Example 6, pro-drug in DLin-MC3-DMA LNPs, 0-24 h, vs. non-anti-inflammatory LNPs; for expression of mRNA 1 (plasma): Example 10, pro-drug in L608 (Merck-32) LNPs, vs. conventional LNPs (Sample S26)
Description: (§1) Different groups of 5 mice (female, age˜12 weeks, Crl:Cd1(ICR), Charles River) were administered with PBS (negative control) or mRNA 1 formulated in lipid nanoparticles. Prior to administration, the mice were lightly anaesthetized with Isoflurane 5% and the injection area was shaved. The formulations were then injected subcutaneously (5 ml/kg or 0.3 mg mRNA/kg) in the intrascapular region to different groups of mice. Post-dose blood samples were collected and plasma was prepared by centrifugation. Aliquots of plasma were transferred into cryo tubes (0.5 ml U-shaped polypropylene cryotubes (Sarstedt Microtube with cap Ref #72.730) and stored frozen until quantification of haptoglobin, cytokines/chemokines and mRNA 1 protein concentrations. In some studies, quantification was also carried out of lipophilic anti-inflammatory agent in plasma samples. At 24 hours after administration, clinical signs of inflammatory response was evaluated by gently pressing the finger over the injection area to determine edema and judged by visual inspection as edema or no edema in the different mice. The number of mice displaying visible signs of edema per group (each group having 5 mice) was summed to give an edema score of 0-5.
mRNA 1 protein was measured as a single analyte with the Milliplex Human Liver Protein Magnetic beads [Merck Millipore, Darmstadt, Germany]. The assay was performed using the Bioplex Multiplex Suspension Array System, Luminex 100TM] and Bioplex Manager 6.1 software curve fitting software [Bio-Rad Laboratories, Hercules, Calif.]. Briefly, the assay was performed according to a modified protocol based upon the manufacturers' instruction, with additional calibration points to extend the lower range of the standard curve. Sample data was back calculated from the standard curve (5PL curve fitting).

KC = assay: Quantification of cytokines/chemokines in plasma: KC; assay type: in vivo, mice; conditions: Example 10; pro-drug in L608 (Merck-32) LNPs, s.c. 0.3 mg mRNA/kg, 7 and 24 hours; vs. Sample S26
Description: (§2) Different groups of 5 mice (female, age˜12 weeks, Crl:Cd1(ICR), Charles River) were administered with PBS (negative control) or mRNA 1 formulated in lipid nanoparticles. Prior to administration, the mice were lightly anaesthetized with Isoflurane 5% and the injection area was shaved. The formulations were then injected subcutaneously (5 ml/kg or 0.3 mg mRNA/kg) in the intrascapular region to different groups of mice. Post-dose blood samples were collected and plasma was prepared by centrifugation. Aliquots of plasma were transferred into cryo tubes (0.5 ml U-shaped polypropylene cryotubes (Sarstedt Microtube with cap Ref #72.730) and stored frozen until quantification of haptoglobin, cytokines/chemokines and mRNA 1 protein concentrations. In some studies, quantification was also carried out of lipophilic anti-inflammatory agent in plasma samples. At 24 hours after administration, clinical signs of inflammatory response was evaluated by gently pressing the finger over the injection area to determine edema and judged by visual inspection as edema or no edema in the different mice. The number of mice displaying visible signs of edema per group (each group having 5 mice) was summed to give an edema score of 0-5. Plasma concentrations of murine cytokines/chemokines were measured by EMD Millipore's MILLIPLEX® MAP Mouse Cytokine magnetic bead kit (Merck KGaA, Darmstadt, Germany) for the simultaneous quantification of cytokines; IL-6, KC, MCP-1 and IP-10. The samples were first diluted 1:2 with Assay buffer then, together with standard's and QC's placed in a 96 well plate. A solution containing beads were added. The beads are magnetic microspheres each of which is coated with a specific antibody. The mixture was incubated over night at 4° C. and the reaction mixture was then incubated with Streptavidin-PE conjungate to complete the reaction on the surface of each microsphere. The plate was read on analyzer Luminex® 100. Each individual microsphere was identified and the result of its bioassay quantified based on fluorescent reporter signals. The concentration was measured using Median Fluorescent Intensity (MFI) data using a 5-parameter logistic curve-fitting method.

IL-6 = assay: Quantification of cytokines/chemokines in plasma: IL-6; assay type: in vivo, mice; conditions: Example 10; pro-drug in L608 (Merck-32) LNPs, s.c. 0.3 mg mRNA/kg, 7 and 24 hours; vs. Sample S26
Description: as §2

[1] = system: mice (female, Crl:Cd1(ICR)); assay: Edema scoring at injection area after subcutaneous administration; assay type: in vivo
Description: as §1

haptoglobin = assay: Quantification of haptoglobin in plasma; assay type: in vivo, mice; conditions: 24 h; for haptoglobin in plasma: s.c. 0.3 mg mRNA/kg
Description: as §1
Plasma concentrations of haptoglobin were measured by EMD Millipore's MILLIPLEX® MAP Mouse Acute Phase panel 2 kit (Merck KGaA, Darmstadt, Germany). The sample was first diluted 1:20 000 with Assay buffer then, together with standard's and QC's placed in a 96 well plate. A solution containing beads were then added. The beads were magnetic microspheres each of which was coated with a specific antibody. The mixture was incubated over night at 4° C. and the reaction mixture was then incubated with Streptavidin-PE conjungate to complete the reaction on the surface of each microsphere. The plate was read on analyzer Luminex® 100. Each individual microsphere was identified and the result of its bioassay quantified based on fluorescent reporter signals. The concentration was measured using Median Fluorescent Intensity (MFI) data using a 5-parameter logistic curve-fitting method.

[2] = Example 6, pro-drug in DLin-MC3-DMA LNPs with mRNA 1, s.c. 0.3 mg mRNA/kg, vs. non-anti-inflammatory LNPs
[3] = Example 9, in both Acuitas-5 and KL10 based LNPs, s.c. 0.3 mg/kg, compared to LNPs based on DLin-MC3-DMA
[4] = Example 10, pro-drug in L608 (Merck-32) LNPs, s.c. 0.3 mg mRNA/kg, vs. conventional LNPs (Sample S26)
[5] = Example 6, pro-drug in DLin-MC3-DMA LNPs, vs. non-anti-inflammatory LNPs
[6] = Example 10, pro-drug in L608 (Merck-32) LNPs, vs. conventional LNPs (Sample S26)
[7] = Example 7, in both DLin-MC3-DMA or Merck-32 based LNPs

SMILES | protein expression (plasma mRNA 1 protein) (mRNA 1 protein) | mRNA 1 protein expression (mRNA 1 protein; Example 9, time interval 0-24 h, Acuitas-5 and KL10 LNPs with vs without rofleponide myristate) | expression of mRNA 1 (plasma) (mRNA 1 protein) | plasma KC (KC) | plasma IL-6 (IL-6) | inflammation measured as edema scoring [1, 2] | inflammation measured as edema scoring [1, 3] | inflammation measured as edema scoring [1, 4] | haptoglobin in plasma (haptoglobin; [5]) | plasma haptoglobin (haptoglobin; [3]) | haptoglobin in plasma (haptoglobin; [6]) | expression of mRNA 1 protein (mRNA 1 protein; [7]) | inflammation measured as edema scoring ([1]; Example 7, in both DLin-MC3-DMA or Merck-32 based LNPs, s.c. 0.3 mg mRNA/kg, 24 h, vs same LNPs without) | haptoglobin in plasma (haptoglobin; [7])
CCCCCCCCCCCCCC(=O)OCC(=O)C12OC(CCC)OC1CC1C3CC(F)C4=CC(=O)CCC4(C)C3(F)C(O)CC12C (stereo not shown) [R-C14, rofleponide myristate] | increased and prolonged protein expression | increased | increased and prolonged expression of mRNA 1 | significantly reduce | significantly reduce | significantly reduced | reduced | significantly reduce | significantly reduced | reduced | significantly reduce |  |  | 
CCCCCCCCCCCCCC(=O)OCC(=O)[C@@]12OC(CCC)O[C@@H]1C[C@H]1[C@@H]3CCC4=CC(=O)C=C[C@]4(C)[C@H]3[C@@H](O)C[C@@]12C (stereo partly shown) [B-C14, budesonide myristate] |  |  |  | not influenced to the same extent | not influenced to the same extent |  |  | not influenced to the same extent |  |  | not influenced to the same extent |  |  | 
CCCCCCCCCCCCCCCC(=O)OCC(=O)C12OC(CCC)OC1CC1C3CC(F)C4=CC(=O)CCC4(C)C3(F)C(O)CC12C (stereo not shown) [R-C16, rofleponide palmitate] | increased and prolonged protein expression |  |  |  |  | significantly reduced |  |  | significantly reduced |  |  | increased expression of mRNA 1 protein | significantly reduced | significantly reduced
CCCCCCCC/C=C\CCCCCCCC(=O)OCC(=O)[C@@]12OC(CCC)O[C@@H]1C[C@H]1[C@@H]3CCC4=CC(=O)C=C[C@]4(C)[C@H]3[C@@H](O)C[C@@]12C (stereo partly shown) [B-C18:1, budesonide oleate] |  |  | increased and prolonged expression of mRNA 1 | significantly reduce | significantly reduce |  |  | significantly reduce |  |  | significantly reduce |  |  | 
CCCCCCCCCCCCCCCC(=O)OCC(=O)[C@@]12OC(CCC)O[C@@H]1C[C@H]1[C@@H]3CCC4=CC(=O)C=C[C@]4(C)[C@H]3[C@@H](O)C[C@@]12C (stereo partly shown) [B-C16, budesonide palmitate] |  |  | increased and prolonged expression of mRNA 1 | significantly reduce | significantly reduce |  |  | significantly reduce |  |  | significantly reduce |  |  | 
CCCCC(=O)OCC(=O)[C@@]12O[C@H](CCC)O[C@@H]1C[C@H]1[C@@H]3C[C@H](F)C4=CC(=O)CC[C@]4(C)[C@@]3(F)[C@@H](O)C[C@@]12C [R-C5, rofleponide valerate] | did not produce a significantly increased total protein expression |  |  |  |  | not significantly influenced |  |  | not significantly influenced |  |  |  |  | 
CCCCCCCCCCCCCCCCCC(=O)OCC(=O)[C@@]12O[C@H](CCC)O[C@@H]1C[C@H]1[C@@H]3C[C@H](F)C4=CC(=O)CC[C@]4(C)[C@@]3(F)[C@@H](O)C[C@@]12C [R-C18, rofleponide stearate] | increased and prolonged protein expression |  |  |  |  | significantly reduced |  |  | significantly reduced |  |  |  |  | 
